Assays:
[1] = Inhibition of Sprague-Dawley rat imidazoline I2 receptor
Nischarin = Nischarin (Rattus norvegicus, UniProt Q4G017); assay: Inhibition of Sprague-Dawley rat imidazoline I1 receptor
[2] = biological target: T1, Adrenergic receptor alpha-2 (Rattus norvegicus, UniProt P22086+P19328+P22909); assay: Inhibition of Sprague-Dawley rat alpha-2 adrenergic receptor
T1 sequence (P22086 whole entry): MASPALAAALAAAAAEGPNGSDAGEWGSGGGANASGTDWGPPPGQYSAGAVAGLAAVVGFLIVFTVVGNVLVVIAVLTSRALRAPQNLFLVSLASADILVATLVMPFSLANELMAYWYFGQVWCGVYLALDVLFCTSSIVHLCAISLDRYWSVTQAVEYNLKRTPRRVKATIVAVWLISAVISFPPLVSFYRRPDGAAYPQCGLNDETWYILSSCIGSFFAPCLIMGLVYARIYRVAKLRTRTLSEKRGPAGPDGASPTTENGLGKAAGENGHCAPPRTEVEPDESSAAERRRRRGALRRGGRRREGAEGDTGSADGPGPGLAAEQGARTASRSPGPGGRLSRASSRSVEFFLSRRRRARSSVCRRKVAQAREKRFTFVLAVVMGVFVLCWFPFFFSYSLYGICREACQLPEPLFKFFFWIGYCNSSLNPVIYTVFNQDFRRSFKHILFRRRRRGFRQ
T1 sequence (P19328 whole entry): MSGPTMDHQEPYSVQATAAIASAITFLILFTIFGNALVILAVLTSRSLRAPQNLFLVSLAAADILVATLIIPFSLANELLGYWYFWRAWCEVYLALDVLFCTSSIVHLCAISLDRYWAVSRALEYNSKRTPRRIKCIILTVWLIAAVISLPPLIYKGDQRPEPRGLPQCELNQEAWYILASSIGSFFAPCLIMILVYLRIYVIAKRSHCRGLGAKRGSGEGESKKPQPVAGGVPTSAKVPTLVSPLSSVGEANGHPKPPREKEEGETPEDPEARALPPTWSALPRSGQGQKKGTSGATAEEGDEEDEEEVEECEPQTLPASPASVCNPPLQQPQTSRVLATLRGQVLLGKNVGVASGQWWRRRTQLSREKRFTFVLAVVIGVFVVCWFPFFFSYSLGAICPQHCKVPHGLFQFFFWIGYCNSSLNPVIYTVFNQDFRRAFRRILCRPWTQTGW
T1 sequence (P22909 whole entry): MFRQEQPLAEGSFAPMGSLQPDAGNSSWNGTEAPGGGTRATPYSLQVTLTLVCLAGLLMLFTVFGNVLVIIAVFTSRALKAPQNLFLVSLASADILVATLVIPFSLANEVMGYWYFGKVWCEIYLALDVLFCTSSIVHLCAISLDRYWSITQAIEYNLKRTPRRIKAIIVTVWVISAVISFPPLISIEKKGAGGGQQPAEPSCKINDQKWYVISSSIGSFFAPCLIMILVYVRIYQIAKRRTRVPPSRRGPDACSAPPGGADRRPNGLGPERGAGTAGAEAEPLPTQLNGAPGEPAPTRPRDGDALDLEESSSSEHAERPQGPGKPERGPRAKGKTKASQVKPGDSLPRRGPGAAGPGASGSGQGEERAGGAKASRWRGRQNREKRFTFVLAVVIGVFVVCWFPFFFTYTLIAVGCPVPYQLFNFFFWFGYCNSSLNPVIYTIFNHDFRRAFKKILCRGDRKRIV

[3] = Inhibition of Wistar rat imidazoline I2 receptor

Sequence of Nischarin (Q4G017 whole entry): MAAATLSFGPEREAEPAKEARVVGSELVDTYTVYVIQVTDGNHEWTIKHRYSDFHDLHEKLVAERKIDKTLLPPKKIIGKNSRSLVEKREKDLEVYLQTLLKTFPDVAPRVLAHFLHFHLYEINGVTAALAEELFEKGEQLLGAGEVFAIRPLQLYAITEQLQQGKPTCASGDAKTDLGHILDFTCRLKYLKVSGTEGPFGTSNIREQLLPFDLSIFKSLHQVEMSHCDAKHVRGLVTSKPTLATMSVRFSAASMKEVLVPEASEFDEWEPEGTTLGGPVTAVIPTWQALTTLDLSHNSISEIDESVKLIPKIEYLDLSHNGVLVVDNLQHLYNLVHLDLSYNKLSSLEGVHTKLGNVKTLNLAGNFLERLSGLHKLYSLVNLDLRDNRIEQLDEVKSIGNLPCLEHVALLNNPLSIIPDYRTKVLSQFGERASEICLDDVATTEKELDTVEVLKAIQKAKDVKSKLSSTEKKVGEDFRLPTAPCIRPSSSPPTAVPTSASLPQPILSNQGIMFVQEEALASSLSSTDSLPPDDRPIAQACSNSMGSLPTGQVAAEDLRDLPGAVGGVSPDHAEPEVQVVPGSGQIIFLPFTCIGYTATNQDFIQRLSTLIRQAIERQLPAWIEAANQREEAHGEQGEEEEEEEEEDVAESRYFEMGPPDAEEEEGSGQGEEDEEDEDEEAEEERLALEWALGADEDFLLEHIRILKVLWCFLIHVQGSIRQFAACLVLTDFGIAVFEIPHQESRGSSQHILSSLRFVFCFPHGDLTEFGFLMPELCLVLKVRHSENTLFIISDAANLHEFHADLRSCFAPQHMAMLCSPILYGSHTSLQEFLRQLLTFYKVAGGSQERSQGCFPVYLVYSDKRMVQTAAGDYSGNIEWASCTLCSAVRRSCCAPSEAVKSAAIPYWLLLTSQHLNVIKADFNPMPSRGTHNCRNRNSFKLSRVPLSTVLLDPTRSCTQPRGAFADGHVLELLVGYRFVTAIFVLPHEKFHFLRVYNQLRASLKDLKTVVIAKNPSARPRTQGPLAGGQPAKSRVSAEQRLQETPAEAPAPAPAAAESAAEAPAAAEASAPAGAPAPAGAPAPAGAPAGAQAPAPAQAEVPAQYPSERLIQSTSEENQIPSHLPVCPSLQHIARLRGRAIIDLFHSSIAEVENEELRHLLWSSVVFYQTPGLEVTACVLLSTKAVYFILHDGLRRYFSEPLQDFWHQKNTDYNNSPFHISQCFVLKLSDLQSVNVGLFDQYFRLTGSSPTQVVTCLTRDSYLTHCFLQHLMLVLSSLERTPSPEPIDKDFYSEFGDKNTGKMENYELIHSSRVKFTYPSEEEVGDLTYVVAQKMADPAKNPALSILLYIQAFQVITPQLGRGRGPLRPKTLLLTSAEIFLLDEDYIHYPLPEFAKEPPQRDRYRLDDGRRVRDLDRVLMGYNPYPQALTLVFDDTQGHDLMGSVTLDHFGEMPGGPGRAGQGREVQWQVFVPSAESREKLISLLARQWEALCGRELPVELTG

| SMILES | Ki [1] [µM] | IC50 (Nischarin) [µM] | Ki [2] [µM] | Ki [3] [µM] |
| --- | --- | --- | --- | --- |
| Br.Cc1cccc(NC2=N[C@@H](CCN)CN2)n1 | 15.7 | 7.78 | 0.445 |  |
| Br.NCC[C@H]1CNC(C2COc3ccccc3O2)=N1 (stereo partly drawn) | 8.12 | 5.11 | 24.02 |  |
| Br.NCC[C@@H]1CNC(Nc2ccc(Cl)cc2Cl)=N1 | 92.5 | 6.33 | 16.92 |  |
| Br.NCC[C@H]1CNC(CN(Cc2ccccc2)c2ccccc2)=N1 | 19.1 | 11.6 | 481.8 |  |
| Br.Cc1cccc(NC2=N[C@H](CCN)CN2)n1 | 39.6 | 8.51 | 4.907 |  |
| Br.NCC[C@@H]1CNC(Nc2cccc(C(F)(F)F)c2)=N1 | 47.7 | 1.25 | 26.69 |  |
| Br.NCC[C@H]1CNC(Cc2ccccc2)=N1 | 59.4 | 278 | 23.32 |  |
| Br.NCC[C@H]1CNC(Nc2cccnc2)=N1 | > 1000 | > 1000 | 19.66 |  |
| Br.NCC[C@H]1CNC(c2ccccc2F)=N1 | 27.6 | 117 | 178.6 |  |
| Br.NCC[C@@H]1CNC(C2COc3ccccc3O2)=N1 (stereo partly drawn) | 9.61 | 2.65 | 5.412 |  |
| Br.NCC[C@H]1CNC(Nc2cccc(C(F)(F)F)c2)=N1 | 12.7 | 1.31 | 3.007 |  |
| Br.NCC[C@H]1CNC(Nc2ccccc2Br)=N1 | 18.8 | 3.7 | 1.553 |  |
| Br.NCC[C@H]1CNC(Cc2cccc3ccccc23)=N1 | 1 | > 100 | 0.964 |  |
| Br.NCC[C@H]1CNC(/C=C/c2ccccc2)=N1 | 11.2 | 17.2 | 3.896 |  |
| Clc1cccc(Cl)c1NC1=NCCN1 [CLONIDINE] | 0.364 |  |  |  |
| Br.NCC[C@@H]1CNC(Cc2cccc3ccccc23)=N1 | 46.3 | 583 | 83.77 |  |
| Br.NCC[C@H]1CNC(Nc2ccc(Cl)cc2Cl)=N1 | 1.76 | 1.48 | 0.854 |  |
| Br.CCC1(C2=N[C@H](CCN)CN2)Cc2ccccc2O1 (stereo partly drawn) | 18.9 | 32.5 | 0.869 |  |
| Br.NCC[C@H]1CNC(Nc2ccc(Br)cc2)=N1 | 81.2 | 59.4 | 25.8 |  |
| Br.NCC[C@H]1CNC(c2ccccc2)=N1 | 3.56 | 72.9 | 43.07 |  |
| Br.NCC[C@H]1CNC(Nc2cccc(Cl)c2)=N1 | 20.3 | 33.9 | 7.018 |  |
| Br.NCC[C@H]1CNC(Nc2c(F)cccc2F)=N1 | 21.8 | 93.1 | 13.06 |  |
| Br.NCC[C@H]1CNC(NCc2ccccc2)=N1 | 7.5 | 101 | 5.539 |  |
| Br.CCC1(C2=N[C@@H](CCN)CN2)Cc2ccccc2O1 (stereo partly drawn) | 2.55 | 1.01 | 20.35 |  |
| Br.NCC[C@H]1CNC(Nc2c(Cl)cccc2Cl)=N1 | 2.43 | 7.75 | 1.899 |  |
| Br.COc1ccc(NC2=N[C@@H](CCN)CN2)cc1 | 24.9 | 79.8 | 9.376 |  |
| Br.NCC[C@@H]1CNC(Nc2c(Cl)cccc2Cl)=N1 | 9.56 | 2.72 | 4.315 |  |
| Cl.Cl.NCC[C@H]1CNC(NC(C2CC2)C2CC2)=N1 | 28 | > 100 | 5.727 |  |
| NCCCCN=C(N)N [AGMATINE] |  |  |  | 417 |
